According to ChEMBL document CHEMBL4393727, “Investigating 1,2,3,4,5,6-hexahydroazepino[4,3-b]indole as scaffold of butyrylcholinesterase-selective inhibitors with additional neuroprotective activities for Alzheimer's disease” (Eur J Med Chem, 2019):
Activity calls are given as the source filed them. The calls are words filed in the database; no cut-off is given here.

Key:
Acetylcholinesterase [1] = target: Acetylcholinesterase (Electrophorus electricus, UniProt O42275); assay: Inhibition of electric eel AChE using acetylthiocholine iodide as substrate preincubated for 20 mins followed by substrate addition and measured upto 5 mins by Ellman's method
Acetylcholinesterase (Electrophorus electricus, UniProt O42275), sequence (O42275 whole entry): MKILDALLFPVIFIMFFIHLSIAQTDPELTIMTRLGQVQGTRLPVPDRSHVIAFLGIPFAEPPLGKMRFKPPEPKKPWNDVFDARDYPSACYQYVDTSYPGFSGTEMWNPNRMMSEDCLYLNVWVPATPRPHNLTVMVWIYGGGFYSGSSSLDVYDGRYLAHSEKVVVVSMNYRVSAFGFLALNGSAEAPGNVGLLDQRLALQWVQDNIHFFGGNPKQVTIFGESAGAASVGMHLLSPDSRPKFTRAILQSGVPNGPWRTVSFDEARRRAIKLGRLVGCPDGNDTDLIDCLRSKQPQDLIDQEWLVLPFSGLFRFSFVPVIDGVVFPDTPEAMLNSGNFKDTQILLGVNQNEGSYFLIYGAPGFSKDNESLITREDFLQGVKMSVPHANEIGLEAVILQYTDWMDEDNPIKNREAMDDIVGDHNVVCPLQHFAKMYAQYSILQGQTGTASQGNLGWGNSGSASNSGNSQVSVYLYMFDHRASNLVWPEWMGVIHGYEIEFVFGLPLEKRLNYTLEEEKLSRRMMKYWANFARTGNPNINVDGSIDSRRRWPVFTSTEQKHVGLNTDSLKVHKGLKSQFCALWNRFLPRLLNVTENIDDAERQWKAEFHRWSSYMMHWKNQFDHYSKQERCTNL

Cholinesterase [2] = target: T1, Cholinesterase (Equus caballus, UniProt P81908); assay: Inhibition of equine serum BChE using butyrylthiocholine as substrate preincubated for 20 mins followed by substrate addition and measured upto 5 mins by Ellman's method
T1 sequence (P81908 whole entry): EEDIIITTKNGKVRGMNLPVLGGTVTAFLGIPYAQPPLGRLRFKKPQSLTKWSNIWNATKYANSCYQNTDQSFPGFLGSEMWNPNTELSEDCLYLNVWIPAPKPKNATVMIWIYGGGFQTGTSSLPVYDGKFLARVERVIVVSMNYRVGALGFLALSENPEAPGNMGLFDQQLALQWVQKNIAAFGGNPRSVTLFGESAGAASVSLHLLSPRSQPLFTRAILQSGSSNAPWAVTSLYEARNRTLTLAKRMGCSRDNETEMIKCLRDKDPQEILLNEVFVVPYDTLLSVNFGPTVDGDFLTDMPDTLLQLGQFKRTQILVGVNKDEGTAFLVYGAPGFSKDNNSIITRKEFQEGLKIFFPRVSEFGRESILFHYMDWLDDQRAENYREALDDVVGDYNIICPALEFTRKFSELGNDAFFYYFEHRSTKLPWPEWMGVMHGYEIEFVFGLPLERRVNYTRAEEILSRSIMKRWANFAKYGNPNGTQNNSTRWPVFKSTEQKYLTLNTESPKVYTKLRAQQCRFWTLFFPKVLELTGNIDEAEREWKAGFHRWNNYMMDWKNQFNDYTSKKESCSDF

[3] = target: Amyloid-beta precursor protein (Homo sapiens) (UniProt P05067); assay: Inhibition of HFIP treated amyloid beta (1 to 40) (unknown origin) self-induced aggregation at 100 uM measured after 2 hrs by Thioflavin T fluorescence assay relative to control
Amyloid-beta precursor protein (Homo sapiens), sequence (P05067 whole entry): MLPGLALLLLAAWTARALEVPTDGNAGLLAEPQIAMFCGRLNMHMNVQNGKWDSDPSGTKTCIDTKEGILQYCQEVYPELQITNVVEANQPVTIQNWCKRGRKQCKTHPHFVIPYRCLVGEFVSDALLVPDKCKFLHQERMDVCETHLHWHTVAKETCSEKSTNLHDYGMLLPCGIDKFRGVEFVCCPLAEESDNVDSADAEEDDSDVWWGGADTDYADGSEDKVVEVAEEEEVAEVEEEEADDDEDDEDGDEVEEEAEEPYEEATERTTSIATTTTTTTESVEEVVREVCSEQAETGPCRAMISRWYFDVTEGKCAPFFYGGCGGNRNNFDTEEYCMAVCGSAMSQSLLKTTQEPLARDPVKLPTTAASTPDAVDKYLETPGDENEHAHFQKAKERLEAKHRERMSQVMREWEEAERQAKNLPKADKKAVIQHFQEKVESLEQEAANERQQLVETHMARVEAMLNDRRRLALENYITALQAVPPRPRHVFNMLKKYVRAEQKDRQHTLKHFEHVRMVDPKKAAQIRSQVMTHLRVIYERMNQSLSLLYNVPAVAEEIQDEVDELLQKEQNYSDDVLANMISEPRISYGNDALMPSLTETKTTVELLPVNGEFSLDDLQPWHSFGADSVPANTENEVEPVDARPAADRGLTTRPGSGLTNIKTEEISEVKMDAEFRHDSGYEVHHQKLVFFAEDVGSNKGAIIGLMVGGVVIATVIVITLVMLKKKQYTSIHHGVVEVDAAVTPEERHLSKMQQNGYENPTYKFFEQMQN

[4] = Selectivity index, ratio of IC50 for electric eel AChE to IC50 for equine serum BuChE
[5] = Aqueous solubility of the compound in phosphate buffered saline at pH 7.4 by reverse phase HPLC analysis; assay type: physicochemical
Cholinesterase [6] = target: Cholinesterase (Homo sapiens, UniProt P06276); assay: Inhibition of human BChE using butyrylthiocholine as substrate preincubated for 20 mins followed by substrate addition and measured upto 5 mins by Ellman's method
Cholinesterase (Homo sapiens, UniProt P06276), sequence (P06276 whole entry): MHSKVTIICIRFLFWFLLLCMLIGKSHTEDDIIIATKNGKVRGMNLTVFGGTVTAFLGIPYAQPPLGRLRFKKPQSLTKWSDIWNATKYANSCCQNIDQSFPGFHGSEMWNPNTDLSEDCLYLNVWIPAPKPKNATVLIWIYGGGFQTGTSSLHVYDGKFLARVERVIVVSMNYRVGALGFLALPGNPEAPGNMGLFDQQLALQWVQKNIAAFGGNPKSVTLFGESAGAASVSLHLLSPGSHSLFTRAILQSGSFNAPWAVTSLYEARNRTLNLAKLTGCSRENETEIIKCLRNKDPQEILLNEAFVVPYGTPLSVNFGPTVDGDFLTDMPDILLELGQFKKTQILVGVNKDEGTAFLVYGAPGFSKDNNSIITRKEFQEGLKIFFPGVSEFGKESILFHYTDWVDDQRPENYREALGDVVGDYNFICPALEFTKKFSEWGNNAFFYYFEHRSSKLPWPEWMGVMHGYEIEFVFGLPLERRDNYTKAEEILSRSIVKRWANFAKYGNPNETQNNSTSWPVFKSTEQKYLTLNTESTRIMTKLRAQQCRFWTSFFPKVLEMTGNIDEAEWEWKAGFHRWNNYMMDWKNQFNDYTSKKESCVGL

Acetylcholinesterase [7] = target: Acetylcholinesterase (Homo sapiens, UniProt P22303); assay: Inhibition of human AChE using acetylthiocholine iodide as substrate preincubated for 20 mins followed by substrate addition and measured upto 5 mins by Ellman's method
Acetylcholinesterase (Homo sapiens, UniProt P22303), sequence (P22303 whole entry): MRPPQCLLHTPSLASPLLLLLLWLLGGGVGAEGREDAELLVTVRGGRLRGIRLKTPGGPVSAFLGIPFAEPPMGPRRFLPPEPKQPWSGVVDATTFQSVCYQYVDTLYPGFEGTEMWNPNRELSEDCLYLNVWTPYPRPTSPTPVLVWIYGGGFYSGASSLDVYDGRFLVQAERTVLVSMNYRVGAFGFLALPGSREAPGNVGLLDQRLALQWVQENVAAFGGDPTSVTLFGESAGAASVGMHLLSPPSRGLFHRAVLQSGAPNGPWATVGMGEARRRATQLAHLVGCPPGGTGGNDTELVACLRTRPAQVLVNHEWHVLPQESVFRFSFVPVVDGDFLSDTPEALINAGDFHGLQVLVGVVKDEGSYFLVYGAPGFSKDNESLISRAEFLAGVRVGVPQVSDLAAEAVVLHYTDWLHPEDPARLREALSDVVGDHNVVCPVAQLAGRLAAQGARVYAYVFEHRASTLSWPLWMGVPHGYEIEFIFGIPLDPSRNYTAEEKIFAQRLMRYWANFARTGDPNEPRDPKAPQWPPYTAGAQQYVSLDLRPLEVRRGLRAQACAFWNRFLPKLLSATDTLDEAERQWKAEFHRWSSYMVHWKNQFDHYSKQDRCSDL

SH-SY5Y [8] = assay: Neuroprotection activity against amyloid beta (1 to 42)-induced cytotoxicity in human SH-SY5Y cells assessed as recovery of viability at 5 uM by MTT assay; assay type: functional, cell-based; conditions: TDE = time-dependent effect
SH-SY5Y [9] = assay: Neuroprotective activity against H2O2-induced oxidative stress in human SH-SY5Y cells assessed as reduction in ROS generation preincubated for 1 hr followed by DCFH-DA addition for 30 mins and subsequent co-treatment with compound and H2O2 for 30 min by fluorescence assay; assay type: functional, cell-based
SH-SY5Y [10] = assay: Neuroprotection activity against amyloid beta (1 to 42)-induced toxicity in human SH-SY5Y cells assessed as recovery of viability at 5 uM measured after 24 hrs by MTT assay relative to control; assay type: functional
Cholinesterase [11] = target: T1, Cholinesterase; assay: Mixed type inhibition of equine serum BChE assessed as Ki using butyrylthiocholine as substrate preincubated for 20 mins followed by substrate addition and measured upto 5 mins by Ellman's method based Lineweaver-Burk plot analysis
SH-SY5Y [12] = assay: Cytotoxicity in human SH-SY5Y cells assessed as decrease in cell viability at 5 uM measured after 48 hrs by MTT assay relative to control; assay type: cell-based
[13] = Selectivity index, ratio of IC50 for electric eel AChE to IC50 for human BuChE
SH-SY5Y [14] = assay: Neuroprotection activity against amyloid beta (1 to 42)-induced cytotoxicity in human SH-SY5Y cells assessed as recovery of viability at 5 uM measured after 48 hrs by MTT assay relative to control; assay type: functional
[15] = target: Amyloid-beta precursor protein (Homo sapiens) (UniProt P05067); assay: Inhibition of HFIP treated amyloid beta (1 to 40) (unknown origin) self-induced aggregation at 100 uM measured after 2 hrs by Thioflavin T fluorescence assay
SH-SY5Y [16] = assay: Neuroprotective activity against H2O2-induced oxidative stress in human SH-SY5Y cells assessed as reduction in ROS generation at 100 uM preincubated for 1 hr followed by DCFH-DA addition for 30 mins and subsequent co-treatment with compound and H2O2 for 30 min by fluorescence assay; assay type: functional, cell-based

SMILES	IC50 (Acetylcholinesterase [1])	IC50 (Cholinesterase [2])	Ratio IC50 [4]	further results
Fc1ccc2[nH]c3c(c2c1)CN(Cc1ccc(CN2CCCC2)cc1)CCC3	7.9 µM	4.3 µM	–	–
Cn1c2c(c3ccccc31)CN(CCc1ccccc1)CCC2	12 µM	0.86 µM	10 to 100	inhibition [3]: 38 to 54%
Cl.c1ccc(CCN2CCCc3[nH]c4ccccc4c3C2)cc1	9 µM	0.7 µM	10 to 100	solubility [5]: > 1000 µM; inhibition [3]: 38 to 54%
Cl.c1ccc(CCCN2CCCc3[nH]c4ccccc4c3C2)cc1	20 µM	0.28 µM	10 to 100	solubility [5]: > 1000 µM; inhibition [3]: 38 to 54%
Fc1ccc2[nH]c3c(c2c1)CN(Cc1ccccc1)CCC3	4.96 µM	2.13 µM	–	–
Fc1ccc2[nH]c3c(c2c1)CCCN(Cc1ccccc1)C3	10.7 µM	3.4 µM	–	–
Cc1ccc2[nH]c3c(c2c1)CNCCC3	45 µM	8 µM	–	–
Cl.c1ccc(CCCCN2CCCc3[nH]c4ccccc4c3C2)cc1	20 µM	0.17 µM	> 100	IC50 (Cholinesterase [6]): 0.199 µM; solubility [5]: > 1000 µM; IC50 (Acetylcholinesterase [7]): 20 µM; Activity (SH-SY5Y [8]): Tde; Activity (SH-SY5Y [9]): Dose-dependent effect; IC50 (SH-SY5Y [9]): 10.1 µM; Activity (SH-SY5Y [10]): 35%; Ki (Cholinesterase [11]): 0.098 µM; Activity (SH-SY5Y [12]): 30%; Ratio IC50 [13]: > 100; Activity (SH-SY5Y [14]): 30%; inhibition [3]: 38 to 54%
Cc1ccc(CN2CCCc3[nH]c4ccccc4c3C2)cc1	10 µM	0.95 µM	10	–
CCN(CC)Cc1ccc(CN2CCCc3[nH]c4ccc(F)cc4c3C2)cc1	4.8 µM	1.4 µM	–	–
CN1CCCc2[nH]c3ccccc3c2C1	7.1 µM	25 µM	–	–
Fc1ccc(CN2CCCc3[nH]c4ccc(F)cc4c3C2)cc1	4.1 µM	2.9 µM	–	–
Cc1ccc2[nH]c3c(c2c1)CN(C)CCC3	25 µM	7.1 µM	–	–
O=C(c1ccccc1)N1CCCc2[nH]c3ccc(F)cc3c2C1	10.6 µM	6 µM	–	–
O=c1c(O)c(-c2ccc(O)c(O)c2)oc2cc(O)cc(O)c12	–	–	–	inhibition [15]: Active; Activity (SH-SY5Y [16]): Active
Fc1ccc2[nH]c3c(c2c1)CNCCC3	16 µM	4.3 µM	–	–
Fc1ccc(CN2CCCc3[nH]c4ccccc4c3C2)cc1	12 µM	1.2 µM	10	–
c1ccc(CN2CCCc3[nH]c4ccccc4c3C2)cc1	8.7 µM	2 µM	–	inhibition [3]: 38 to 54%
Cc1ccc2[nH]c3c(c2c1)CN(Cc1ccccc1)CCC3	6.95 µM	1.2 µM	–	–
c1ccc2c3c([nH]c2c1)CCCNC3	70 µM	20 µM	–	–
